Reference: patent US20030083469A1, “Allosteric control of nuclear hormone receptors” (The Salk Institute for Biological Studies, priority 1995, published 2003)

How the values were obtained:
RAR-RXR heterodimers = target: T1, RAR-RXR heterodimers (Homo sapiens, UniProt P10276+P19793); experiment: Transient transfection analysis of RAR-RXR heterodimers (TK-LUC reporter, CV-1 cells); format: cell-based
T1 construct: transient transfection analysis of full-length Nurrl and/or RXR; expressed in transfected cells; host or cells: CV-1
T1 sequence (P10276 1-462): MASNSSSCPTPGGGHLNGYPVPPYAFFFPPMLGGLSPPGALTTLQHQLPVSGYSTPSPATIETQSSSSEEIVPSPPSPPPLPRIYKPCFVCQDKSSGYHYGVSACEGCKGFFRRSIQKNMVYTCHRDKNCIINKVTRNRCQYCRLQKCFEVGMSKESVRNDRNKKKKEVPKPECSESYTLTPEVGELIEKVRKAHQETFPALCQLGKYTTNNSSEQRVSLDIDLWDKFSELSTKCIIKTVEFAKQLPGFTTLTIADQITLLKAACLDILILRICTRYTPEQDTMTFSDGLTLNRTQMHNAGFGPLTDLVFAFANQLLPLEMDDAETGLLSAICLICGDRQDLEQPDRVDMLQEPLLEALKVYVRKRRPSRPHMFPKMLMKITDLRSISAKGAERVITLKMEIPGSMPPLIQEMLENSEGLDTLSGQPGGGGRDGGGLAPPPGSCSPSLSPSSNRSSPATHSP
T1 sequence (P19793 1-462): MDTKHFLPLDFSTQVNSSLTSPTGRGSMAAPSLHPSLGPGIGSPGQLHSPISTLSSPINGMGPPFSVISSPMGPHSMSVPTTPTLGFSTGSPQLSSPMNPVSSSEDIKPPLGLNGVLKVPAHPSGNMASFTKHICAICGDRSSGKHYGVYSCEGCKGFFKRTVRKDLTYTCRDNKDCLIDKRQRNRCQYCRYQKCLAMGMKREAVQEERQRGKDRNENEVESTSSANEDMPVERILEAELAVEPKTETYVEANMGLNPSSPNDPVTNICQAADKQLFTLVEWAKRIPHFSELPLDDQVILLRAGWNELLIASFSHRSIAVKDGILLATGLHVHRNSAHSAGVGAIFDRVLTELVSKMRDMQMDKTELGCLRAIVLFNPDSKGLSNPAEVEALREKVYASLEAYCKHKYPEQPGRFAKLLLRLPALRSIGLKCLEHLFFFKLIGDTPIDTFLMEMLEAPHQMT
Experimental: One day prior to transfection, cells were plated to 50-80% confluence using phenol-red free DMEM-FBS. Cells were transfected by lipofection using N-{2-(2,3)-dioleoyloxy)propyl-N,N,N-trimethyl ammonium methyl sulfate} according to the manufacturer's instructions (DOTAP, Boehringer Mannheim).
In the right panel of FIG. 2, cells were transfected with HRE×1 TK-LUC (300 ng/10^5 cells), CMX-hRARα (50 ng/10^5 cells) CMX-hRXRα (50 ng/10^5 cells) and CMX-βgal (500 ng/10^5 cells) . […] Normalized luciferase activity was determined and plotted as fold-activation relative to untreated cells.

GAL-RXR + RAR LBD = target: T2, GAL-RXR + RAR LBD (Homo sapiens, UniProt P10276+P19793); experiment: Transient transfection analysis of GAL-RXR LBD in the presence of RAR LBD; format: cell-based
T2 construct: human RXRα LBD (Glu 203 - Thr 462); HRARα LBD (Glu 156 - PRO 462); expressed in transfected cells; host or cells: CV-1
T2 sequence (P19793 203-462): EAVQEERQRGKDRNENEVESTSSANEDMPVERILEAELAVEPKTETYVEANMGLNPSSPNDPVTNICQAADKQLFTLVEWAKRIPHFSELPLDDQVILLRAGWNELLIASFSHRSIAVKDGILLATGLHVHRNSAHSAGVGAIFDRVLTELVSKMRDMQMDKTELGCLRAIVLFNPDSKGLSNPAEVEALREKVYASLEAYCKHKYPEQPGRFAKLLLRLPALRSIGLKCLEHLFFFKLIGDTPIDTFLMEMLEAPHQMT
T2 sequence (P10276 156-462): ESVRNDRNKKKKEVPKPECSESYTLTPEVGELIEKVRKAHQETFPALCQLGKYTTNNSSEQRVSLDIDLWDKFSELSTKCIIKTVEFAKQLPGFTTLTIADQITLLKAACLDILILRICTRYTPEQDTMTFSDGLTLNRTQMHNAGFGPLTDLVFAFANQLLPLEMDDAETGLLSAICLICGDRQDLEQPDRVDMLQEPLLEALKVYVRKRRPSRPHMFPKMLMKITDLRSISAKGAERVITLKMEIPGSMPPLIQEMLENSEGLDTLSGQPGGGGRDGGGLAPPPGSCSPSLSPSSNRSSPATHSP
Experimental: CV-1 cells were grown in Dulbecco's Modified Eagle's medium supplemented with 10% resin-charcoal stripped (Samuels et al., Endocrinology 105:80-85 (1979)) fetal bovine serum, 50 U/ml penicillin G and 50 μg/ml streptomycin sulfate (DMEM-FBS) at 37° C. in 5% CO2. One day prior to transfection, cells were plated to 50-80% confluence using phenol-red free DMEM-FBS. Cells were transfected by lipofection using N-{2-(2,3)-dioleoyloxy)propyl-N,N,N-trimethyl ammonium methyl sulfate} according to the manufacturer's instructions (DOTAP, Boehringer Mannheim). […]. All points were performed in triplicate in each experiment and varied by less than 10%. Each experiment was repeated three or more times with similar results.
Thus, a chimeric protein was constructed containing the yeast GAL4 DBD linked to the RXR LBD (GAL-RXR). The ability of this RXR-chimera to respond to LG69 was initially examined in the presence of truncated receptors containing the LBDs of T3R or RAR. Thus, transient transfection analysis of GAL-RXR LBD was carried out in the presence of T3R, RAR or VDR LBDs. Reporter constructs contained 4 copies of the UASG cloned upstream of the TK-LUC reporter. […] Normalized luciferase activity was determined and plotted as reporter activity (see FIG. 3).
[…]. Normalized luciferase activity was determined and plotted as fold-activation relative to untreated cells.

## CC=C(c1ccc(C(=O)O)cc1)c1cc2c(cc1C)C(C)(C)CCC2(C)C [LG69, 4-{1-(3,5,5,8,8-pentamethyl-5,6,7,8-tetrahydro-2-napthalenyl)-1-propenyl}benzoic acid]
RAR-RXR heterodimers; 50 nM Am580+100 nM LG69, full-length receptors
  transcriptional activity with Am580+LG69 over that seen with AM580 alone: increased transcriptional activity
RAR-RXR heterodimers; CV-1 cells transfected with RARα and RXRα, 50 nM Am580 or 100 nM LG69
  responsiveness of transfected cells to ligand (luciferase fold-activation): unresponsive
GAL-RXR + RAR LBD; GAL-RXR + RAR LBD, 50 nM AM580+100 nM LG69
  transcriptional activity with Am580+LG69 over that seen with AM580 alone: increased transcriptional activity
GAL-RXR + RAR LBD; unliganded RAR LBD present, 100 nM LG69
  fold-responsiveness of GAL-RXR to LG69: strongly suppressed
